This test has as its system CEM cells HIV-1 protection, formazan growth assay. Nature of the test: NCI AIDS Antiviral Assay. The settings on record: for pIC50: measured here: growth of uninfected CEM cells. An outline of the steps: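 Human CEM cells, uninfected and HIV-1-infected, exposed to five drug concentrations; growth measured by soluble formazan assay and scored as percent protection from infection, with protecting compounds retested.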

By pEC50 is commonly meant −log10 of the EC50, conventionally taken in molar units. As a reminder, the pIC50 is the IC50 on a negative log10 scale, so that one unit is a factor of ten. Low values mean a high IC50, high ones a low IC50.

pEC50, pIC50: −log10 of the molar value. Activity calls are given as the source filed them.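 Rule for the calls: active = compounds giving half or more protection of infected cells from virus-caused growth loss, again on retest; inactive = the rest.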 Where a SMILES comes first, the peptide text is derived from it. Some results are limits rather than exact numbers.

For `CCC(C)C(NC(=O)C1CCCN1C(=O)C(Cc1ccc(O)cc1)NC(=O)C(CC(N)=O)NC(=O)C(CCC(N)=O)NC(=O)C(CO)NC(=O)C(N)C(C)C)C(=O)NC(CC(C)C)C(=O)NC(CCC(N)=O)C(N)=O` (stereo not given) (H-VSQNYPILQ-NH2; configuration not given here), the pEC50 was less than 4.23 and the pIC50 was less than 4.23.

With `COCn1c(C)c(C)c2c(=O)oc(C)nc21`, the pEC50 is less than 3.70 and the pIC50 was less than 3.70.

With `CCC(=O)C12OC3OC(C)(C)OC3C1OC(C)(C)O2` (stereo not given), the outcome was inactive. The same measure, in the same setting: in the case of `CC1(C)C(c2ccccc2)=NN(O)c2ccccc21` it was “inactive”. In the case of `CCCCc1c2c(nc3c1CCC/C3=C\c1ccccc1)C(=O)CCC2`, the pEC50 was less than 5.24 and the pIC50 is less than 5.24.

With `CCOc1ccc(OCC)c([P+](c2ccccc2)(c2ccccc2)c2ccccc2)c1`, the result was inactive. On to `CCC/C(Cl)=N\OC(=O)Nc1cccc(C(F)(F)F)c1`, for which the pEC50 was less than 3.70 and the pIC50 is 5.17. With `COc1ccc(CN2CC(C)N(N=Cc3c4c(O)c5c(O)c(C)c6c(c5c3O)C(=O)C(C)(O/C=C/C(OC)C(C)C(OC(C)=O)C(C)C(O)C(C)C(O)C(C)/C=C/C=C(\C)C(=O)N4)O6)C(C)C2)cc1` (stereo not given), the pEC50 was less than 3.70 and the pIC50 is 5.04. In the case of `OCC1OC2NC(=S)OC2C(O)C1O` (stereo not given), the pEC50 is less than 3.70 and the pIC50 was less than 3.70. On to `[O-][N+]1=NC(c2ccccc2)=C1c1ccccc1`, for which the pEC50 is less than 4.30 and the pIC50 was less than 4.30. Regarding `N#C/C(C(=O)Nc1ccccc1)=C(/N)N1CCOCC1`, the pEC50 was less than 3.70 and the pIC50 was less than 3.70.

Take `Cc1nc2nnc(C)n2c2c1C(=O)Nc1ccccc1N2`: the pEC50 is less than 3.70 and the negative-log IC50 (pIC50) was less than 3.70. On to `C(=C/[PH+](c1ccccc1)c1ccccc1)/[PH+](c1ccccc1)c1ccccc1.[C-]#[O+].[C-]#[O+].[C-]#[O+].[C-]#[O+].[C-]#[O+].[Mo+2].[Mo+4].[c-]1[c-][c-][cH-][c-]1.[c-]1[c-][c-][cH-][c-]1`, for which the pEC50 was less than 5.22 and the pIC50 is 5.48.

Regarding `CCN(CC)CCCC(C)Nc1cc(-c2ccccc2)nc2cc(OC)ccc12` (stereo not given), the pEC50 is less than 3.44 and the pIC50 was 6.13. As for `CC(C)(C)OC(=O)NC1CCCCC1NC(=O)C(=O)NC1CCCCC1NC(=O)OC(C)(C)C` (stereo not given), the pEC50 is less than 4.00 and the negative logarithm of the IC50 (pIC50) was less than 4.00.

`C[C@H](COCP(=O)(O)O)n1cnc2c(N)ncnc21`: the pEC50 is less than 3.70 and the pIC50 is less than 3.70. For the compound `CC(CN)OC12CC3CC(CC(C3)C1)C2` (stereo not given), the pEC50 was less than 3.70 and the pIC50 is 3.98. On to `Nc1ncnc2c1ncn2C1CC(O)C(CO)(C(F)(F)F)O1` (stereo not given), for which the pEC50 was less than 3.70 and the pIC50 is 4.21. As for `CN(C)/C=N/NC(=O)/C(C#N)=C/N(C)C`, the pEC50 was less than 3.70 and the pIC50 was less than 3.70. As for `Cc1ccc(/C=C(\C#N)c2ccccc2)cc1`, the pEC50 was less than 3.64 and the pIC50 was less than 3.64. For `c1ccc(C2SCC3COCN32)cc1` (stereo not given), the pEC50 is less than 3.62 and the pIC50 is less than 3.62. With `CNc1ncc2nc(C(=O)O)c(=O)n(C)c2n1`, the pEC50 was less than 3.70 and the pIC50 is less than 3.70.

For the compound `C/C(CC(=O)Nc1cccc(Cl)c1C)=N\NC(N)=S`, the pEC50 is less than 3.92 and the pIC50 was less than 3.92. Regarding `O=C1CC2c3c(OCc4ccccc4)cccc3OC2O1` (stereo not given), the pEC50 was less than 4.32 and the pIC50 was less than 4.32.

Consider `COc1ccc(OC)c(N(CN2C(=O)CCC2C(=O)O)C(C)=O)c1` (stereo not given), for which the pEC50 is less than 3.70 and the pIC50 is less than 3.70.

Regarding `O=C(Cl)c1ccc([As](=O)(O)O)cc1`, the pEC50 is less than 3.70 and the pIC50 is less than 3.70.

For the compound `CN(C)c1ccc(C(=C2C=CC(=[N+](C)C)C=C2)c2cc(S(=O)(=O)O)cc3cc(S(=O)(=O)O)ccc23)cc1`, the pEC50 is less than 4.00 and the pIC50 was less than 4.00. Regarding `C=C1C(=O)C23OC2C1CCC(=O)C1(C)CC[C@H](OC(C)=O)C(C)(C)[C@H]1CC3=O` (stereo not given in full), the pEC50 was less than 3.76 and the pIC50 is 5.64. On the same counts, the results for `c1cc2nnc1SCCSCCCSCCS2` are less than 3.70 and 3.74. With `Cc1cccc(C)c1NC(=O)C(=O)C(C#N)c1ccccc1Cl` (stereo not given), the pEC50 was less than 3.12 and the pIC50 was less than 3.12.

Take `CC1(C)CC(O)C(C)(C)[C@@H](O)C1` (stereo not given in full): the result was inactive.

Take `Cn1c(NC(=O)NC23CC4CC(CC(C4)C2)C3)nc2ccccc21`: the pEC50 was less than 3.70 and the pIC50 is less than 3.70.

Take `CC1(C)S[C@H](CN)N[C@H]1C(=O)OC(c1ccccc1)c1ccccc1`: the pEC50 was less than 3.70 and the pIC50 was 4.22. Turning to `COc1ccc(/C=C2\N=C(N3CCOCC3)NC2=O)cc1`, the pEC50 was less than 3.70 and the pIC50 was less than 3.70. As to `N#Cc1c(N=C2CCCCC2)c(C(=O)Nc2ccccc2)n2c1CCC2`, the pEC50 was less than 4.00 and the pIC50 was less than 4.00.

Take `CCC[CH2][Sn]([CH2]CCC)([CH2]CCC)/[C](=C/[Si](C)(C)c1ccccc1)c1ccc2c(c1)OCO2`: the pEC50 is less than 5.46 and the pIC50 is less than 5.46. Turning to `N=C(N)c1ccc(N=NNc2ccc(C(=N)N)cc2)cc1` (tested in a mixture with another compound), the pEC50 was less than 3.82 and the pIC50 was 4.40.

In the case of `O=C1N2CCN=C2c2ccccc2C1(O)c1ccccc1` (stereo not given), the pEC50 is less than 3.70 and the pIC50 is less than 3.70.

With `CC1CCC(O)C(C(O)CC2CC(=O)NC(=O)C2)C1` (stereo not given), the pEC50 is less than 3.70 and the pIC50 was less than 3.70. Regarding `CCN(CC)c1c([N+](=O)[O-])c(=O)nc2ccccn12`, the pEC50 was less than 3.70 and the pIC50 is 3.98. Take `CC1Oc2cc3c(-c4c(O)cc(O)c5c(O)c6c(cc45)OC(C)C(C)C6=O)c(O)cc(O)c3c(O)c2C(=O)C1C` (stereo not given): the pEC50 was less than 4.46 and the pIC50 is 6.42. Turning to `c1ccc2c(c1)NC1=C(CSCC1)c1nncn1-2`, the pEC50 was less than 3.70 and the pIC50 was less than 3.70. With `O=c1nc(-c2ccccc2)cc(CC(O)c2ccc(Cl)c(Cl)c2)[nH]1` (stereo not given), the pEC50 was less than 4.70 and the pIC50 was less than 4.70. As to `CCOC(=O)c1c(-c2ccc(OC)cc2)ccn1C`, the pEC50 is less than 3.70 and the pIC50 was 4.54. For `O=c1[nH]n(CCc2ccncc2)c(=O)c2ccccc12`, the pEC50 was less than 3.70 and the pIC50 was less than 3.70.

Consider `NC(=O)c1cccc(N=O)c1`, for which the pEC50 was less than 3.70 and the pIC50 is 4.89.

In the case of `CC1=NN2C(=O)CSC2=NC(C)(C)C1`, the pEC50 was 3.58 and the pIC50 was 2.93. For the compound `CCOC(=O)c1[nH]n(-c2ccccc2)c(=O)c1/C=N/C(=S)N=Nc1c(O)[nH]c2ccccc12`, the pEC50 was less than 3.70 and the pIC50 is less than 4.00. As to `Cn1cnc([N+](=O)[O-])c1Sc1ccccc1N`, the pEC50 was less than 3.28 and the pIC50 was 4.21. `CCOC(=O)C(C#N)(Cc1ccc2ccccc2n1)Cc1ccc2ccccc2n1`: the pEC50 was less than 3.70 and the pIC50 was less than 3.70. As for `COc1cc(/C=C/C(=O)c2cc(Cl)cc(Cl)c2O)cc(OC)c1OC`, the pEC50 is less than 3.70 and the pIC50 is 5.69.

On to `CCN(CC)C(=S)SCC(=O)Nc1nc2c(s1)CCCC2`, for which the pEC50 was less than 4.68 and the pIC50 is less than 4.68. Take `O=C(O)c1cnc2c(ccc3[nH]cccc32)c1=O`: the pEC50 is less than 4.12 and the pIC50 is less than 4.12. `CCCC1N2CCCCC2[C@@H]2c3[nH]c4ccccc4c3CCN12` (stereo not given in full): the pEC50 was less than 3.37 and the pIC50 is less than 3.37. For `Cn1c2ccccc2n2c(=O)c3c(c(C#N)c12)CCCC3`, the pEC50 was less than 5.14 and the pIC50 was less than 5.14. With `Cc1nn2c(C(=O)O)nnc2s1`, the pEC50 was less than 3.70 and the pIC50 is less than 3.70.

`O=C(CN1CCN(Cc2ccccc2)CC1)c1ccc2[nH]c(=O)oc2c1`: the pEC50 is less than 3.70 and the pIC50 was 3.80. Consider `COc1cc2c(c(OC)c1OC)C(=O)[C@H](O)[C@H]2NC(N)=O`, for which the pEC50 was less than 3.70 and the pIC50 is 3.98. Regarding `O=C(O)C1CSC(c2cccs2)N1` (stereo not given), the pEC50 is less than 3.70 and the pIC50 was less than 3.70. For `CC(=O)OC(Cc1ccc2ccccc2n1)(C(F)(F)F)C(F)(F)F`, the outcome was inactive.

Consider `O=C1CCC(N2C(=O)C3C(C2=O)C2(Cl)C(Cl)=C(Cl)C3(Cl)C2(Cl)Cl)C(=O)N1` (stereo not given), for which the pEC50 is less than 3.70 and the pIC50 is less than 3.70. `COc1cc(/C=C2\S/C(=N/Nc3nc(-c4ccc(Br)cc4)cs3)NC2=O)cc(OC)c1OC`: the pEC50 is less than 3.70 and the pIC50 was 4.77. Consider `O=C1CC2c3[nH]c4ccccc4c3CCN2C2=C1CCCC2` (stereo not given), for which the pEC50 is less than 3.70 and the pIC50 was 4.99.

For `Nc1cc(C(=O)O)ccc1SSc1ccc(C(=O)O)cc1N`, the pEC50 is 4.03 and the pIC50 is less than 3.70.

Regarding `N#CC1=C(N)N(/N=C/c2ccco2)C(c2ccco2)C1(C#N)C#N` (stereo not given), the pEC50 was less than 3.70 and the pIC50 is 5.10. As for `CC1=C2CC[C@@]3(C)C(=CCC3O)C2(C)CCC1=O` (stereo not given in full), the outcome was inactive. With `CNC(=S)NNc1ncnc2c1c(-c1ccc(Cl)cc1)cn2-c1ccc(C)cc1`, the result was inactive. For `O=C(O)CC[N+]1=CCC(c2ccccc2)(c2ccccc2)O1`, the pEC50 is less than 3.08 and the pIC50 was less than 3.08.

In the case of `CC1=CC(C)(C)NC(=S)N1CCO`, the outcome was inactive. In the case of `COC(c1ccc(C(C)(C)C)cc1)(c1ccc(C(C)(C)C)cc1)c1cc(C(O)(c2cc(C(OC)(c3ccc(C(C)(C)C)cc3)c3ccc(C(C)(C)C)cc3)c(C)cc2C)c2cc(C(OC)(c3ccc(C(C)(C)C)cc3)c3ccc(C(C)(C)C)cc3)c(C)cc2C)c(C)cc1C`, the result was inactive. In the case of `CCCNP(=S)(NCCC)NCCC`, the pEC50 is less than 3.70 and the pIC50 was less than 3.70. Consider `Cc1ccc(/C=C/C(=O)C(C)C)cc1`, for which the pEC50 was less than 3.70 and the pIC50 is 4.15.

These data come from PubChem BioAssay AID179 (DTP/NCI, 2004).
